Laboratory results as given in patent US20260263340A1, “Cosmetic Products and Cleaning Products Stabilized Against Microbial Attack” (Thor GmbH, priority 2023, published 2026).

What was measured:
[1] = test system: bacteria mixture 1; test: Repeated-inoculation microbiological stress test of all-purpose cleaner, bacteria mixture 1; type: cell-based; set-up: key to Bacterial growth after inoculation: 0: No growth; Minimal growth, 1 to 10 colonies visible over the entire streak; 2: Light growth, maximum 100 colonies; Moderate growth, maximum 300 to 400 colonies; Uniform growth, >400 colonies, single colonies still clearly recognizable; 5: Heavy growth, too many colonies to count, but no growth over the entire streak; 6: Full growth, barely any single colonies still apparent, growth over the entire streak; conditions: for Bacterial growth after inoculation: All-purpose cleaner, 6 d
From the text: (§1) The tested cleaning composition was an all-purpose cleaner without preservatives and having a pH of 7.7, the skin lotion was a body lotion without preservatives and having a pH of 7.1, and the shampoo was a hair shampoo without preservatives and having a pH of 6.9.
(§2) The cleaning composition was admixed with particular concentrations of guanidine carbonate and guanidine hydrochloride and homogenized. The body lotion and the hair shampoo were each admixed and homogenized with guanidine hydrochloride and with octane-1,2-diol alone or in combination.
(§3) The batches of the products thus obtained were inoculated repeatedly at particular intervals with bacteria mixtures or yeast mixtures that are used as standard for microbiological stress tests of industrial products or cosmetic products (bacteria mixture 1 and 2, yeast mixture 1 and 2).
(§4) The inoculum was added to the respective sample in each inoculation at 2% (v/w) as a fresh cell suspension in a physiological saline solution (0.9% NaCl). The cell count of the inoculum added was 10^8-10^9/ml for the bacteria mixtures, 10^7-10^8/ml for the yeast mixtures, consisting in equal parts of the individual bacteria strains or yeast strains.
(§5) The cell suspension of the bacteria mixtures was produced by growing the individual bacteria at 30° C. for 24 h in liquid culture on a shaker. The medium used to grow the bacteria from bacteria mixtures 1 and 2 was Müller-Hinton liquid medium. The bacteria from bacteria mixture 3 were grown in Müller-Hinton liquid medium that had been adjusted to pH 9.5 to 9.7 with an alkaline buffer solution beforehand. After growing, the individual liquid cultures were centrifuged, and the cells were resuspended in physiological saline solution. In order to adjust the mixtures to a total cell count of 10^8 to 10^9/ml, the individual bacteria suspensions, if necessary, were diluted accordingly before being combined with saline solution. The cell count of the inoculum suspensions was determined in each case by chamber counting.
(§6) In the examples, the samples were inoculated three times at weekly intervals with the respective cell suspensions (2% v/w) and the evolution of the bacteria or yeasts was followed by a semiquantitative evaluation method. After each inoculation, microbial infestation in the samples was evaluated in each case after incubation at 30° C. for 6 to 7 days. For this purpose, an aliquot was taken from each sample after homogenization using a sterile plastic inoculation loop (10 μl) and streaked evenly on agar plates (bacteria mixture 1 and 2 on tryptic soy agar, bacteria mixture 3 on DSMZ 31 alkaline nutrient agar, Sabouraud glucose-agar in the case of yeasts). The streaked agar plates were then incubated at 30° C. for 48 hours (bacteria mixture 1 and 2) or 5 to 7 days (bacteria mixture 3), or at 25° C. for 72 hours (yeast mixtures). After incubation, the bacteria colonies or yeast colonies that have grown on the agar plates were visually evaluated and quantified according to the following scheme:
Inoculation 2% (w/v) with bacteria mixture 1, cell count 10^9/ml

[2] = test system: bacteria mixture 3; test: Repeated-inoculation microbiological stress test of all-purpose cleaner, bacteria mixture 3 (alkaliphilic bacteria); type: cell-based, Nesterenkonia spec.; set-up: key to Bacteria growth after inoculation: 0: No growth; Minimal growth, 1 to 10 colonies visible over the entire streak; 2: Light growth, maximum 100 colonies; Moderate growth, maximum 300 to 400 colonies; Uniform growth, >400 colonies, single colonies still clearly recognizable; 5: Heavy growth, too many colonies to count, but no growth over the entire streak; 6: Full growth, barely any single colonies still apparent, growth over the entire streak; conditions: for Bacteria growth after inoculation: All-purpose cleaner, 7 d
From the text: as §1, §2
The cleaning composition was additionally inoculated repeatedly at particular intervals with a special inoculum consisting of a mixture of alkaliphilic bacteria (bacteria mixture 3) that had been isolated from a bacterially contaminated cleaning composition having a pH of 9.8.
as §4, §5, §6
Inoculation 2% (w/v) with bacteria mixture 3, cell count 10^9/ml

[3] = test system: yeast mixture 1; test: Repeated-inoculation microbiological stress test of all-purpose cleaner, yeast mixture 1; type: cell-based; set-up: key to Yeast growth after inoculation: 0: No growth; Minimal growth, 1 to 10 colonies visible over the entire streak; 2: Light growth, maximum 100 colonies; Moderate growth, maximum 300 to 400 colonies; Uniform growth, >400 colonies, single colonies still clearly recognizable; 5: Heavy growth, too many colonies to count, but no growth over the entire streak; 6: Full growth, barely any single colonies still apparent, growth over the entire streak; conditions: for Yeast growth after inoculation: All-purpose cleaner, 6 d
From the text: as §1, §2, §3, §4
The cell suspension of the yeast mixtures was produced by growing the yeast strains on Sabouraud glucose-agar at 25° C. for 48 hours and washing down the cell lawn in each case with physiological saline solution (0.9% NaCl). Further steps for establishment of a cell count of the inoculum suspension of 10^7/ml to 10^8/ml were effected analogously to the production of the bacteria suspensions.
as §6
Inoculation 2% (w/v) with yeast mixture 1, cell count 10^8/ml

[4] = +1000 ppm guanidine carbonate (656 ppm guanidine) pH 9.3, 1. inoculation
[5] = +1000 ppm guanidine carbonate (656 ppm guanidine) pH 9.3, 2. inoculation
[6] = +1000 ppm guanidine carbonate (656 ppm guanidine) pH 9.3, 3. inoculation

N=C(N)N.N=C(N)N.O=C(O)O [guanidine carbonate]
Bacterial growth after inoculation ([1]; +1000 ppm guanidine carbonate (656 ppm guanidine) pH 9.2, 1. inoculation): 0
Bacterial growth after inoculation ([1]; +1000 ppm guanidine carbonate (656 ppm guanidine) pH 9.2, 2. inoculation): 0
Bacterial growth after inoculation ([1]; +1000 ppm guanidine carbonate (656 ppm guanidine) pH 9.2, 3. inoculation): 5
Bacterial growth after inoculation ([1]; +1500 ppm guanidine carbonate (984 ppm guanidine) pH 9.5, 1. inoculation): 0
Bacterial growth after inoculation ([1]; +1500 ppm guanidine carbonate (984 ppm guanidine) pH 9.5, 2. inoculation): 0
Bacterial growth after inoculation ([1]; +1500 ppm guanidine carbonate (984 ppm guanidine) pH 9.5, 3. inoculation): 0
stability of the all-purpose cleaner to microbial infestation by bacteria ([1]; addition of 659 ppm of guanidine in the form of guanidine carbonate at pH 9.2 or pH 9.5): distinct improvement in stability
Bacteria growth after inoculation ([2]; +500 ppm guanidine carbonate (328 ppm guanidine) pH 9.1, 1. inoculation): 0
Bacteria growth after inoculation ([2]; +500 ppm guanidine carbonate (328 ppm guanidine) pH 9.1, 2. inoculation): 2 (Light growth, maximum 100 colonies)
Bacteria growth after inoculation ([2]; +500 ppm guanidine carbonate (328 ppm guanidine) pH 9.1, 3. inoculation): 2 (Light growth, maximum 100 colonies)
Bacteria growth after inoculation [2, 4]: 0
Bacteria growth after inoculation [2, 5]: 0
Bacteria growth after inoculation [2, 6]: 1 (Minimal growth, 1 to 10 colonies visible over the entire streak)
Bacteria growth after inoculation ([2]; +2500 ppm guanidine carbonate (1640 ppm guanidine) pH 10.0, 1. inoculation): 0
Bacteria growth after inoculation ([2]; +2500 ppm guanidine carbonate (1640 ppm guanidine) pH 10.0, 2. inoculation): 0
Bacteria growth after inoculation ([2]; +2500 ppm guanidine carbonate (1640 ppm guanidine) pH 10.0, 3. inoculation): 0
Bacteria growth after inoculation ([2]; +5000 ppm guanidine carbonate (3280 ppm guanidine) pH 10.5, 1. inoculation): 0
Bacteria growth after inoculation ([2]; +5000 ppm guanidine carbonate (3280 ppm guanidine) pH 10.5, 2. inoculation): 0
Bacteria growth after inoculation ([2]; +5000 ppm guanidine carbonate (3280 ppm guanidine) pH 10.5, 3. inoculation): 0
stability of the all-purpose cleaner to microbial infestation by bacteria ([2]; addition of 330 ppm of guanidine in the form of guanidine carbonate at pH 9.1): distinct improvement in stability
Yeast growth after inoculation [3, 4]: 1 (Minimal growth, 1 to 10 colonies visible over the entire streak)
Yeast growth after inoculation [3, 5]: 1 (Minimal growth, 1 to 10 colonies visible over the entire streak)
Yeast growth after inoculation [3, 6]: 3 (Moderate growth, maximum 300 to 400 colonies)
Yeast growth after inoculation ([3]; +2500 ppm guanidine carbonate (1640 ppm guanidine) pH 9.9, 1. inoculation): 0
Yeast growth after inoculation ([3]; +2500 ppm guanidine carbonate (1640 ppm guanidine) pH 9.9, 2. inoculation): 0
Yeast growth after inoculation ([3]; +2500 ppm guanidine carbonate (1640 ppm guanidine) pH 9.9, 3. inoculation): 0
Yeast growth after inoculation ([3]; +5000 ppm guanidine carbonate (3280 ppm guanidine) pH 10.4, 1. inoculation): 0
Yeast growth after inoculation ([3]; +5000 ppm guanidine carbonate (3280 ppm guanidine) pH 10.4, 2. inoculation): 0
Yeast growth after inoculation ([3]; +5000 ppm guanidine carbonate (3280 ppm guanidine) pH 10.4, 3. inoculation): 0
stability of the all-purpose cleaner to microbial infestation by yeasts ([3]; addition of 659 ppm of guanidine in the form of guanidine carbonate at pH 9.9): distinct improvement in stability
